The source made the active and inactive calls. The calls are words filed in the database; no cut-off is given here.
How the values were obtained:
[1] = molecular target: T1, Autotaxin (Homo sapiens, UniProt Q13822); assay: Inhibition of human ATX pre-incubated for 45 mins before fluorogenic substrate-3 addition and measured every minute for 30 mins by fluorescence based assay
[2] = test system: Mus musculus; assay: Protection against lung fibrosis in C57BL/6 mouse model of bleomycin sulfate-induced idiopathic pulmonary fibrosis assessed as induction of body weight recovery at 60 mg/kg, po dosed once daily for 31 days followed by bleomycin sulfate challenge on day 3; type: functional, organism-based
[3] = test system: Mus musculus; assay: Ex-vivo inhibition of ATX lysoPLD activity in lung homogenate isolated from C57BL/6 mouse model of bleomycin sulfate-induced idiopathic pulmonary fibrosis assessed absorbance for artificial substrate FS-3 cleavage at 60 mg/kg, po dosed once daily for 31 days followed by bleomycin sulfate challenge on day 3 by fluorescence based assay; type: functional
[4] = test system: Mus musculus; assay: Protection against lung fibrosis in C57BL/6 mouse model of bleomycin sulfate-induced idiopathic pulmonary fibrosis assessed as induction of improvement in lung texture at 60 mg/kg, po dosed once daily for 31 days followed by bleomycin sulfate challenge on day 3 by hematoxylin and eosin staining based assay; type: functional, organism-based
[5] = test system: Mus musculus; assay: Protection against lung fibrosis in C57BL/6 mouse model of bleomycin sulfate-induced idiopathic pulmonary fibrosis assessed as induction of body weight recovery at 20 mg/kg, po dosed once daily for 31 days followed by bleomycin sulfate challenge on day 3; type: functional, organism-based
[6] = test system: Mus musculus; assay: Ex-vivo inhibition of ATX lysoPLD activity in lung homogenate isolated from C57BL/6 mouse model of bleomycin sulfate-induced idiopathic pulmonary fibrosis assessed […] for artificial substrate FS-3 cleavage at 20 mg/kg, po dosed once daily for 31 days followed by bleomycin sulfate challenge on day 3 by fluorescence based assay; type: functional
[7] = test system: Mus musculus; assay: Ex-vivo inhibition of ATX lysoPLD activity in lung homogenate isolated from C57BL/6 mouse model of bleomycin sulfate-induced idiopathic pulmonary fibrosis assessed absorbance for artificial substrate FS-3 cleavage at 20 to 60 mg/kg, po dosed once daily for 31 days followed by bleomycin sulfate challenge on day 3 by fluorescence based assay; type: functional, organism-based
[8] = test system: Mus musculus; assay: Protection against lung fibrosis in C57BL/6 mouse model of bleomycin sulfate-induced idiopathic pulmonary fibrosis assessed as induction of improvement in histopathological changes by measuring modified Ashcroft score level at 20 mg/kg, po dosed once daily for 31 days followed by bleomycin sulfate challenge on day 3 by hematoxylin and eosin staining based assay (reference value: 6.28); type: functional
[9] = test system: Mus musculus; assay: Protection against lung fibrosis in C57BL/6 mouse model of bleomycin sulfate-induced idiopathic pulmonary fibrosis assessed as induction of improvement in lung texture at 20 mg/kg, po dosed once daily for 31 days followed by bleomycin sulfate challenge on day 3 by hematoxylin and eosin staining based assay; type: functional, organism-based
[10] = test system: Mus musculus; assay: Protection against lung fibrosis in C57BL/6 mouse model of bleomycin sulfate-induced idiopathic pulmonary fibrosis assessed as induction of improvement in histopathological changes by measuring modified Ashcroft score level at 60 mg/kg, po dosed once daily for 31 days followed by bleomycin sulfate challenge on day 3 by hematoxylin and eosin staining based assay (reference value: 6.28); type: functional
[11] = test system: Mus musculus; assay: Protection against lung fibrosis in C57BL/6 mouse model of bleomycin sulfate-induced idiopathic pulmonary fibrosis assessed as induction of improvement in lung texture at 20 to 60 mg/kg, po dosed once daily for 31 days followed by bleomycin sulfate challenge on day 3 by hematoxylin and eosin staining based assay; type: functional, organism-based
[12] = molecular target: T1, Autotaxin
Description: Inhibition of human ATX by LPC choline release assay

[13] = test system: Mus musculus; assay: Protection against lung fibrosis in C57BL/6 mouse model of bleomycin sulfate-induced idiopathic pulmonary fibrosis assessed as induction of improvement in lung texture by measuring modified Ashcroft score level at 60 mg/kg, po dosed once daily for 31 days followed by bleomycin sulfate challenge on day 3 by Masson staining based assay; type: functional

## Cn1cc(C(=O)N/N=C/c2ccc(F)cc2)c2cc(-c3nc(CN4CCOCC4)cs3)ccc21
[1]
  IC50: 2870 nM

## CCn1cc(C(=O)N/N=C/c2ccc3c(c2)OCO3)c2cc(-c3nc(CN4CCOCC4)cs3)ccc21
[1]
  IC50: > 10000 nM

## C/C(=N\NC(=O)c1cn(C)c2ccc(-c3nc(CN4CCN(C)CC4)cs3)cc12)c1ccc(F)cc1
[1]
  IC50: > 10000 nM

## CCn1cc(NC(=O)OCc2cccc(Cl)c2Cl)c2cc(-c3nc(CN4CCC(O)CC4)cs3)ccc21
[1]
  IC50: 127 nM

## Cn1cc(C(=O)N/N=C/c2ccc(Cl)cc2)c2cc(-c3nc(CN4CCOCC4)cs3)ccc21
[1]
  IC50: > 10000 nM

## CCn1cc(C(=O)N/N=C/c2ccc3c(c2)OCO3)c2cc(-c3nc(CN4CCC(O)CC4)cs3)ccc21
[1]
  IC50: 107 nM

## CCn1cc(C(=O)N/N=C/c2ccc(F)cc2)c2cc(-c3nc(CN4CCC[C@H]4CO)cs3)ccc21
[1]
  IC50: 655 nM

## CCc1nc2c(C)cc(N3CCN(CC(=O)N4CC(O)C4)CC3)cn2c1N(C)c1nc(-c2ccc(F)cc2)c(C#N)s1 [ZIRITAXESTAT]
[2]
  Activity: Active
[3]
  Activity: 4.03 a.u.
[4]
  Activity: Active

## CN1CCN(Cc2csc(-c3ccc4c(c3)c(C(=O)N/N=C/c3ccc(F)cc3)cn4C)n2)CC1
[1]
  IC50: 5240 nM

## CCn1cc(NC(=O)OCc2ccc3c(c2)OCO3)c2cc(-c3nc(CN4CCC[C@H]4CO)cs3)ccc21
[1]
  IC50: 34.7 nM

## CCn1cc(NC(=O)OCc2ccc3c(c2)OCO3)c2cc(-c3nc(CN(CCO)CCO)cs3)ccc21
[1]
  IC50: 30.7 nM

## CCn1cc(NC(=O)O[C@H](C)c2ccc(C)cc2)c2cc(-c3nc(CN4CCC(O)CC4)cs3)ccc21
[1]
  IC50: 117 nM

## CCn1cc(NC(=O)OCc2cc(Cl)cc(Cl)c2)c2cc(-c3nc(CN(CCO)CCO)cs3)ccc21
[1]
  IC50: 21.3 nM

## CCn1cc(NC(=O)OCc2cc(Cl)cc(Cl)c2)c2cc(-c3nc(CN4CCC(O)CC4)cs3)ccc21
[1]
  IC50: 613 nM

## CCn1cc(C(=O)N/N=C/c2ccc(OC)cc2)c2cc(-c3nc(CN4CCOCC4)cs3)ccc21
[1]
  IC50: > 10000 nM

## CCn1cc(C(=O)N/N=C/c2ccc(F)cc2)c2cc(-c3nc(CN4CCOCC4)cs3)ccc21
[1]
  IC50: 1370 nM

## CCn1cc(C(=O)N/N=C/c2ccc3c(c2)OCO3)c2cc(-c3nc(CN4CCC[C@H]4CO)cs3)ccc21
[1]
  IC50: 610 nM

## CCn1cc(C(=O)N/N=C/c2ccc(OC)cc2)c2cc(-c3nc(CN4CCCCC4)cs3)ccc21
[1]
  IC50: 1460 nM

## CCn1cc(C(=O)N/N=C/c2ccc(F)cc2)c2cc(-c3nc(CN4CCC(O)CC4)cs3)ccc21
[1]
  IC50: 906 nM

## CCN1CCN(Cc2csc(-c3ccc4c(c3)c(C(=O)N/N=C(\C)c3ccc(F)cc3)cn4CC)n2)CC1
[1]
  IC50: 1590 nM

## CCn1cc(NC(=O)OCc2ccc3c(c2)OCO3)c2cc(-c3nc(CN4CCC(O)CC4)cs3)ccc21
[1]
  IC50: 34.1 nM

## CCn1cc(C(=O)N/N=C(\C)c2ccc(F)cc2)c2cc(-c3nc(CN4CCC(O)CC4)cs3)ccc21
[1]
  IC50: 69.4 nM

## CCn1cc(NC(=O)OCc2ccccc2)c2cc(-c3nc(CN4CCC(O)CC4)cs3)ccc21
[1]
  IC50: 970 nM

## CCn1cc(NC(=O)O[C@H](C)c2ccccc2Cl)c2cc(-c3nc(CN4CCC[C@H]4CO)cs3)ccc21
[1]
  IC50: 199 nM

## CCn1cc(NC(=O)OCc2ccc(F)c(F)c2)c2cc(-c3nc(CN4CCC(O)CC4)cs3)ccc21
[1]
  IC50: 1.01 nM
[2]
  Activity: Active
[5]
  Activity: Active
[6]
  Activity: 3.85 a.u.
[3]
  Activity: 3.37 a.u.
[7]
  inhibition: Dose-dependent effect
[8]
  Activity_index: 4.66
[9]
  Activity: Active
[10]
  Activity_index: 3.2
[11]
  Activity: Dose-dependent effect

## CCn1cc(C(=O)N/N=C/c2ccc(Cl)cc2)c2cc(-c3nc(CN4CCC(O)CC4)cs3)ccc21
[1]
  IC50: 180 nM

## CN1CCN(Cc2csc(-c3ccc4c(c3)c(C(=O)N/N=C/c3ccc5c(c3)OCO5)cn4C)n2)CC1
[1]
  IC50: 879 nM

## CCn1cc(C(=O)N/N=C(\C)c2ccc(F)cc2)c2cc(-c3nc(CN4CCN(CCO)CC4)cs3)ccc21
[1]
  IC50: 508 nM

## CCn1cc(C(=O)N/N=C/c2ccc(F)cc2)c2cc(-c3nc(CN4CCCCC4)cs3)ccc21
[1]
  IC50: 3960 nM

## CCn1cc(NC(=O)OCc2ccccc2)c2cc(-c3nc(CN4CCC[C@H]4CO)cs3)ccc21
[1]
  IC50: 122 nM

## CCn1cc(C(=O)N/N=C(\C)c2ccc(F)cc2)c2cc(-c3nc(CN4CCOCC4)cs3)ccc21
[1]
  IC50: 1840 nM

## Cn1cc(C(=O)N/N=C/c2ccc3c(c2)OCO3)c2cc(-c3nc(CN4CCOCC4)cs3)ccc21
[1]
  IC50: > 10000 nM

## CN(C)Cc1csc(-c2ccc3[nH]cc(C(=O)O)c3c2)n1
[1]
  IC50: 740 nM

## CCn1cc(C(=O)N/N=C/c2ccc3c(c2)OCO3)c2cc(-c3nc(CN4CCC(C)CC4)cs3)ccc21
[1]
  IC50: > 10000 nM

## CCn1cc(C(=O)N/N=C(\C)c2ccc(F)cc2)c2cc(-c3nc(CN4CCC[C@H]4CO)cs3)ccc21
[1]
  IC50: 15.7 nM

## CCn1cc(C(=O)N/N=C/c2ccc(F)cc2)c2cc(-c3nc(CN4CCN(CCO)CC4)cs3)ccc21
[1]
  IC50: 135 nM

## CCn1cc(C(=O)N/N=C/c2ccc(Cl)cc2)c2cc(-c3nc(CN4CCN(CCO)CC4)cs3)ccc21
[1]
  IC50: 231 nM

## CCn1cc(C(=O)N/N=C/c2ccc3c(c2)OCO3)c2cc(-c3nc(CN4CCN(C)CC4)cs3)ccc21
[1]
  IC50: 757 nM

## CCCC[C@@H](CCCC(=O)NO)NC(=O)CCCCC(=O)Nc1ccccc1
[12]
  IC50: 60 nM

## CCn1cc(C(=O)N/N=C/c2ccc(F)cc2)c2cc(-c3nc(CN4CCC(C)CC4)cs3)ccc21
[1]
  IC50: > 10000 nM

## CCN1CCN(Cc2csc(-c3ccc4c(c3)c(C(=O)N/N=C/c3ccc(Cl)cc3)cn4CC)n2)CC1
[1]
  IC50: 2310 nM

## CCn1cc(C(=O)N/N=C(\C)c2ccc(F)cc2)c2cc(-c3nc(CN4CCN(C)CC4)cs3)ccc21
[1]
  IC50: 2530 nM

## CCn1cc(NC(=O)OCc2cccc(Cl)c2Cl)c2cc(-c3nc(CN4CCN(CCO)CC4)cs3)ccc21
[1]
  IC50: 62.7 nM

## CCn1cc(NC(=O)OCc2cc(Cl)cc(Cl)c2)c2cc(-c3nc(CN4CCN(CCO)CC4)cs3)ccc21
[1]
  IC50: 0.43 nM
[2]
  Activity: Active
[5]
  Activity: Active
[6]
  Activity: 3.43 a.u.
[3]
  Activity: 3.25 a.u.
[7]
  inhibition: Dose-dependent effect
[9]
  Activity: Active
[10]
  Activity_index: 2.04
[13]
  Activity_index: 2.01

## CCN1CCN(Cc2csc(-c3ccc4c(c3)c(C(=O)N/N=C/c3ccc(F)cc3)cn4CC)n2)CC1
[1]
  IC50: 1350 nM

## CCn1cc(NC(=O)OCc2ccc(F)c(F)c2)c2cc(-c3nc(CN4CCC[C@H]4CO)cs3)ccc21
[1]
  IC50: 297 nM

## CCn1cc(NC(=O)O[C@H](C)c2ccccc2Cl)c2cc(-c3nc(CN4CCC(O)CC4)cs3)ccc21
[1]
  IC50: 210 nM

## CCn1cc(C(=O)N/N=C/c2ccc3c(c2)OCO3)c2cc(-c3nc(CN4CCCCC4)cs3)ccc21
[1]
  IC50: 1550 nM

## CCn1cc(C(=O)N/N=C(\C)c2ccc(F)cc2)c2cc(-c3nc(CN4CCCC4)cs3)ccc21
[1]
  IC50: 2740 nM

## CCn1cc(C(=O)N/N=C/c2ccc(Cl)cc2)c2cc(-c3nc(CN4CCCC4)cs3)ccc21
[1]
  IC50: 1170 nM

## CCn1cc(C(=O)N/N=C/c2ccc3c(c2)OCO3)c2cc(-c3nc(CN4CCN(CCO)CC4)cs3)ccc21
[1]
  IC50: 1320 nM

## CCn1cc(NC(=O)O[C@H](C)c2ccc(C)cc2)c2cc(-c3nc(CN4CCC[C@H]4CO)cs3)ccc21
[1]
  IC50: 36.9 nM

— ChEMBL document CHEMBL4613326 (J Med Chem, 2020)
